Earlier results in the CATMoS acute toxicity set (Mansouri et al. 2021).
Values joined by “and” are separate entries in the source; they are usually repeats but may differ in a detail not shown here. Equal entries are not always repeated.

Test: rat acute oral toxicity
Details: in vivo

Row | Compound | LD50
1 | COc1ccc2c3c1O[C@H]1[C@@H](OC(=O)c4cccnc4)C=C[C@H]4[C@@H](C2)N(C)CC[C@@]341 | 840 mg/kg
2 | CC(C)OP(=S)(OC(C)C)SCn1nc(-c2ccccc2)ccc1=O | 25000 mg/kg
3 | Cc1c(O)cccc1O | 200 mg/kg
4 | CNC(=O)Oc1ccccc1Cl | 648 mg/kg
5 | O=C(O)Cc1ccc(C2CCCCC2)c(Cl)c1 | 83 mg/kg
6 | CCOCCOCC | 4390 mg/kg
7 | Cc1ccc(N2C(=O)C=CC2=O)cc1N1C(=O)C=CC1=O | 2400 mg/kg
8 | COCCOC(C)OCCOC | 3260 mg/kg
9 | CCOC(=O)CC(=O)NP(=O)(OC)SC (stereo not given) | 125 mg/kg
10 | O=C(Cc1cccs1)N[C@@H]1C(=O)N2C(C(=O)[O-])=C(C[n+]3ccccc3)CS[C@H]12 | 2500 mg/kg
11 | O=C(Cc1c[nH]c2ccccc12)NN1C(=O)CSC1=S | 432 mg/kg
12 | CCCC(C)C(=O)Nc1ccc(C)c(Cl)c1 (stereo not given) | 5100 mg/kg
13 | CN(C)c1ccc(-c2nc(=O)n(C)nc2-c2ccc(N(C)C)cc2)cc1 | 3000 mg/kg
14 | COc1cc(NC(=O)CC(C)=O)c(OC)cc1Cl | 850 mg/kg
15 | CC(=O)CC(=O)Nc1ccc(Cl)cc1C | 3500 mg/kg
16 | C=C(OP(=O)(OCC)OCC)c1ccc(Cl)cc1Cl | 1530 mg/kg
17 | NNC(=S)NN | 21.6 mg/kg
18 | c1ccc(N2CCNCC2)cc1 | 210 mg/kg
19 | C=CC(=O)N1CN(C(=O)C=C)CN(C(=O)C=C)C1 | 350 mg/kg
20 | ClC(Cl)(Br)CBr | 205 mg/kg

Row | Compound | LD50
21 | CC(CO)Oc1ccccc1 (stereo not given) | 2830 mg/kg
22 | CN(C)C=Nc1c(I)cc(I)c(CCC(=O)O)c1I | 2500 mg/kg and 1030 mg/kg
23 | CCOP(=S)(OCC)OC(C)=CC(=O)OC | 0.14 mg/kg
24 | Oc1ccc(N=Cc2ccccc2)cc1 | 3500 mg/kg
25 | CCCCP(CCCC)CCCC | 750 mg/kg
26 | CCN(N=O)C(C)OC (stereo not given) | 1000 mg/kg
27 | NC(Cc1ccc(Oc2ccc(N(CCCl)CCCl)cc2)cc1)C(=O)O (stereo not given) | 620 mg/kg
28 | CCOP(=S)(CCl)Oc1ccc([N+](=O)[O-])cc1 (stereo not given) | 127 mg/kg
29 | CN(Cc1ccc(Cl)cc1Cl)S(N)(=O)=O | 2350 mg/kg
30 | CNC(=O)Oc1ccc(C)c2c1OC(C)(C)C2 | 12 mg/kg
31 | COP(=S)(OC)Oc1ccc([N+](=O)[O-])c(C(F)(F)F)c1 | 250 mg/kg
32 | CNC(=O)Oc1cccc(C(C)C)c1Cl | 35 mg/kg
33 | Cc1ccc(C#N)cc1 | 3800 mg/kg
34 | CCOc1ccc([N+](=O)[O-])cc1CNCCO | 25 mg/kg
35 | C=CCN(CC=C)CC=C | 1030 mg/kg
36 | CC(C)COC(=O)CCCOc1ccc(Cl)cc1Cl | 300 mg/kg
37 | C#CC(C)(C)N | 1470 mg/kg
38 | CCN(C)N=O | 90 mg/kg
39 | O=S(=O)(Oc1ccc(Cl)cc1)c1ccccc1 | 1350 mg/kg
40 | O=CNC(Nc1ccc(Cl)c(Cl)c1)C(Cl)(Cl)Cl (stereo not given) | 2500 mg/kg

Row | Compound | LD50
41 | C#CCC1=C(C)C(OC(=O)C2C(C=C(C)C)C2(C)C)CC1=O (stereo not given) | 460 mg/kg
42 | Nc1ccc2cc(S(=O)(=O)O)c(/N=N/c3ccc(-c4ccc(/N=N/c5c(S(=O)(=O)O)cc6cc(S(=O)(=O)O)cc(N)c6c5O)cc4)cc3)c(O)c2c1 | 6450 mg/kg
43 | CC(C)OP(=S)(OC(C)C)SCSC(C)C | 5 mg/kg
44 | CCOC(C)=O | 5620 mg/kg
45 | OC(CCl)CCl | 110 mg/kg
46 | CC(=O)Nc1cccc2c3c([nH]c12)CCCC3 | 3860 mg/kg
47 | CC(C)(N=C=O)c1cccc(C(C)(C)N=C=O)c1 | 4600 mg/kg
48 | CNC(=O)ON=C1SCSC1(C)C | 0.67 mg/kg
49 | CCOP(=O)(OCC)ON=C(C1CC1)C1CC1 | 7.85 mg/kg
50 | CCCSC(=O)Cl | 1130 mg/kg
51 | O=c1cc(O)c1=O | 41 mg/kg
52 | c1ccc(Nc2ccc3ccccc3c2)cc1 | 8730 mg/kg
53 | CN(C(O)=NC(C)(C)c1ccccc1)c1ccccc1 | 6130 mg/kg
54 | FC(F)(F)C(Cl)Br (stereo not given) | 5680 mg/kg
55 | Cc1ccc(=O)n(CSP(=S)(OC(C)C)OC(C)C)n1 | 155 mg/kg
56 | CCC(CO)NC(=O)C1C=C2c3cccc4c3c(cn4C)CC2N(C)C1 (stereo not given) | 200 mg/kg
57 | O=C(NNCS(=O)(=O)O)c1ccncc1 | 14400 mg/kg
58 | Cc1ccc(N)c(S(=O)(=O)O)c1 | 11700 mg/kg
59 | Nc1ccc(-c2ccc(-n3nc4ccc5c(S(=O)(=O)O)cc(S(=O)(=O)O)cc5c4n3)cc2)cc1 | 7210 mg/kg
60 | Cc1ccc2c(c1)CC(=O)c1cc(C(C)C(=O)O)ccc1S2 (stereo not given) | 100 mg/kg
